One test concerns DU145. The experiment in a line: Proliferation assay, DU145. The class given is cell-based, human. To be noted: DU145 cells, 4 days, crystal violet. From the text:
(§1) Cultivated human tumor cells (MCF7, […] human breast cancer cells, related to ATCC HTB22; NCI-H460, human non-small-cell lung cancer cells, ATCC HTB-177, HCT 116, human colon cancer cells, ATCC CCL-247; DU 145, hormone-independent human prostate cancer cells, ATCC HTB-81; MaTu-MDR, hormone-independent, multiple pharmaceutical agent-resistant human breast cancer cells, EPO-GmbH, Berlin) were flattened out at a density of about 5000 cells/measuring point, depending on the growth rate of the respective cells, in a 96-well multititer plate in 200 μl of the corresponding growth medium. After 24 hours, the cells of one plate (zero-point plate) were colored with crystal violet (see below), while the medium of the other plates was replaced by fresh culture medium (200 μl), to which the test substances were added in various concentrations (0 μm, as well as in the range of 0.01-30 μm; the final concentration of the solvent dimethyl sulfoxide was 0.5%). The cells were incubated for 4 days in the presence of test substances. The cell proliferation was determined by coloring the cells with crystal violet: the cells were fixed by adding 20 μl/measuring point of an 11% glutaric aldehyde solution for 15 minutes at room temperature. After three washing cycles of the fixed cells with water, the plates were dried at room temperature. The cells were colored by adding 100 μl/measuring point of a 0.1% crystal violet solution (the pH was set at 3 by adding acetic acid). After three washing cycles of the colored cells with water, the plates were dried at room temperature. The dye was dissolved by adding 100 μl/measuring point of a 10% acetic acid solution. The extinction was determined by photometry at a wavelength of 595 nm The change of cell growth, in percent, was calculated by normalization of the measured values to the extinction values of the zero-point plate (=0%) and the extinction of the untreated (0 μm) cells (=100%).

The test system of another test is MaTu-ADR. In words: Proliferation assay, MaTu-ADR. The conditions noted are these: MaTu-ADR cells, 4 days, crystal violet. It is filed as cell-based, human.
Excerpt: as §1

Another test concerns MCF7. In words: Proliferation assay, MCF7. The class given is cell-based, human. The conditions noted are these: MCF7 cells, 4 days, crystal violet.
Excerpt: as §1

In the next test the test system is H460. The experiment in a line: Proliferation assay, H460. It is filed as cell-based, human. To be noted: H460 cells, 4 days, crystal violet.
Excerpt: as §1

A further test deals with CDK1/CycB (Homo sapiens (Human), UniProt P06493). The experiment in a line: CDK1/CycB kinase assay. The class given is biochemical. The conditions noted are these: histone IIIS substrate, 0.5 μm ATP. The procedure: Recombinant CDK1- and CycB-GST-fusion proteins, purified from baculovirus-infected insect cells (Sf9), were purchased from ProQinase GmbH, Freiburg. Histone IIIS, used as a kinase substrate, is available commercially from the Sigma Company.
The reaction was stopped by adding EDTA solution (250 mmol, pH 8.0, 14 μl/measuring point).
(§2) From each reaction batch, 10 μl was applied to P30 filter strips (Wallac Company), and non-incorporated 33P-ATP was removed by subjecting the filter strips to three washing cycles for 10 minutes each in 0.5% phosphoric acid. After the filter strips were dried for one hour at 70° C., the filter strips were covered with scintillator strips (MeltiLex™ A, Wallac Company) and baked for one hour at 90° C. The amount of incorporated 33P (substrate phosphorylation) was determined by scintillation measurement in a gamma-radiation measuring device (Wallac).

The target in a further test is VEGF-R2 (Homo sapiens (Human), UniProt P35968). In words: VEGF receptor-2 kinase assay. It is filed as biochemical. To be noted: poly-(Glu4Tyr) substrate, 8 μmol ATP. The procedure: Recombinant VEGF receptor tyrosine kinase-2 was purified as a GST fusion protein from baculovirus-infected insect cells (Sf9). Poly-(Glu4Tyr), which was used as a kinase substrate, was purchased by the Sigma Company.
VEGF receptor tyrosine kinase (90 ng/measuring point) was incubated for 10 minutes at 22° C. in the presence of various concentrations of test substances (0 μm, as well as within the range of 0.001-30 μm) in 30 μl of assay buffer [40 mmol of Tris/HCl, […], 10 mmol of MgCl2, 1 mmol of MnCl2, 3 μmol of Na ortho-vanadate, 1.0 mmol of dithiothreitol, 8 μmol of adenosine trisphosphate (ATP), 27 μg/measuring point of poly-(Glu4Tyr), 0.2 μCi/measuring point of 33P-gamma ATP, 1% dimethyl sulfoxide]. The reaction was stopped by adding EDTA solution (250 mmol, pH 7.0, 10 μl/measuring point).
as §2

The target in another test is CDK2/CycE (Homo sapiens (Human), UniProt P24941). The experiment in a line: CDK2/CycE kinase assay. The class given is biochemical. The conditions noted are these: histone IIIS substrate, 0.5 μm ATP. The procedure:
Recombinant CDK2- and CycE-GST-fusion proteins, purified from baculovirus-infected insect cells (Sf9), were purchased by ProQinase GmbH, Freiburg. Histone IIIs, which was used as a kinase substrate, was purchased by the Sigma Company.
CDK2/CycE (50 ng/measuring point) was incubated for 15 minutes at 22° C. in the presence of various concentrations of test substances (0 μm, as well as within the range of 0.01-100 μm) in assay buffer [50 mmol of tris/HCl, pH 8.0, 10 mmol of MgCl2, 0.1 mmol of Na ortho-vanadate, 1.0 mmol of dithiothreitol, 0.5 μm of adenosine triphosphate (ATP), 10 μg/measuring point of histone IIIS, 0.2 μCi/measuring point of ^33P-gamma ATP, 0.05% NP40, 12.5% dimethyl sulfoxide]. The reaction was stopped by adding EDTA solution (250 mmol, pH 8.0, 14 μl/measuring point).
From each reaction batch, 10 μl was applied to P30 filter strips (Wallac Company), and non-incorporated ^33P-ATP was removed by subjecting the filter strips to three washing cycles for 10 minutes each in 0.5% phosphoric acid. After the filter strips were dried for one hour at 70° C., the filter strips were covered with scintillator strips (MeltiLex™ A, Wallac Company) and baked for one hour at 90° C. The amount of incorporated ^33P (substrate phosphorylation) was determined by scintillation measurement in a gamma-radiation measuring device (Wallac).

Eleven compounds from patent US8507510B2, “Sulfoximine-substituted pyrimidines as CDK- and/or VEGF inhibitors, their production and use as pharmaceutical agents” (Bayer Intellectual Property GmbH, priority 2003, dated 2013) can be followed below.

pIC50: −log10 of the molar value. A value given as a limit tells only on which side of the number the result lay.

As a reminder, the pIC50 is the IC50 on a negative log10 scale, so that one unit is a factor of ten. Lower therefore signals a high IC50.

Chain of VEGF-R2 (P35968 20-1356, species assumed): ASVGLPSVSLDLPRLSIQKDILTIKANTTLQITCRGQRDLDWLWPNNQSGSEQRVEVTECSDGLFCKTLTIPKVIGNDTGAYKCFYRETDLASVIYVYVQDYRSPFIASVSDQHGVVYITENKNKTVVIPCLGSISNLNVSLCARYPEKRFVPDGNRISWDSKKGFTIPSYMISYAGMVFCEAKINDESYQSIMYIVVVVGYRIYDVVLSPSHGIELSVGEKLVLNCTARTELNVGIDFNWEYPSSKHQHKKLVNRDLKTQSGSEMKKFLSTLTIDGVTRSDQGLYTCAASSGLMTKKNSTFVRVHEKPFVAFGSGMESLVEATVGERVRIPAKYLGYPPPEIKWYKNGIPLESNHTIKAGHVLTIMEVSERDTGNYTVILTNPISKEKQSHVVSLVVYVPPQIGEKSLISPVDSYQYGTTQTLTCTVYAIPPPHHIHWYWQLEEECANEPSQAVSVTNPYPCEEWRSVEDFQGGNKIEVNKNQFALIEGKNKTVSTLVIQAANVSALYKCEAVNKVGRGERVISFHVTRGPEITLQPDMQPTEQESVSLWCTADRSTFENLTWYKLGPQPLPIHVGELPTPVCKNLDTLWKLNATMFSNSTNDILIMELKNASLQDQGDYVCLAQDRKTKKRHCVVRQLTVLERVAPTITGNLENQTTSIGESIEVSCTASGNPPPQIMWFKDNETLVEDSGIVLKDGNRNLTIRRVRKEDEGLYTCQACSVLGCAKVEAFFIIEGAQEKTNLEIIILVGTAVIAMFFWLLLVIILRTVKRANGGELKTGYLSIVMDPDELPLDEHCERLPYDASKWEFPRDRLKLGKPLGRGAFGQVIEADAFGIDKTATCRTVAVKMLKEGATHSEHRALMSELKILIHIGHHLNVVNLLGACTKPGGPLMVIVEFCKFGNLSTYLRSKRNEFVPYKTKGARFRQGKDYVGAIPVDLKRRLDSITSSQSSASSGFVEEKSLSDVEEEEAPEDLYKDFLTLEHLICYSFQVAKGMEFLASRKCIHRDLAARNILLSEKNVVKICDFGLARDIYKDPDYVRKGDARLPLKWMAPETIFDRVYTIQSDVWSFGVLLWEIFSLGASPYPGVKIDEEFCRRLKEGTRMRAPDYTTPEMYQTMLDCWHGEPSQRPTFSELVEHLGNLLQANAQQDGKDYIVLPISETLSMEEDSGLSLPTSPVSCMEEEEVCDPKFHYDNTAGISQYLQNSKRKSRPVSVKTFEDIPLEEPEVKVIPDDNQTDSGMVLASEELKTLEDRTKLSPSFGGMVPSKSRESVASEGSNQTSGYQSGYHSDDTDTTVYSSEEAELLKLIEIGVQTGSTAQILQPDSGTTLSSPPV
Chain of CDK1/CycB (P06493 whole entry, the tested form may be a part): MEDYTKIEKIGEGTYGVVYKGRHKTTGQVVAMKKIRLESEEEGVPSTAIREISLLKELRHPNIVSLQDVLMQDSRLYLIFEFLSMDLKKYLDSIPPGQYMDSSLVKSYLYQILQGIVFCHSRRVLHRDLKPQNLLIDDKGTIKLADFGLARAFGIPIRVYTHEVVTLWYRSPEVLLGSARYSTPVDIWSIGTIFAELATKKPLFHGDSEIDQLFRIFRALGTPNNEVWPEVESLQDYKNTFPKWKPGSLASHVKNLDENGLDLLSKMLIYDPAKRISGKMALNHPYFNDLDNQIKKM
Chain of CDK1/CycB (P14635 whole entry partner, the tested form may be a part): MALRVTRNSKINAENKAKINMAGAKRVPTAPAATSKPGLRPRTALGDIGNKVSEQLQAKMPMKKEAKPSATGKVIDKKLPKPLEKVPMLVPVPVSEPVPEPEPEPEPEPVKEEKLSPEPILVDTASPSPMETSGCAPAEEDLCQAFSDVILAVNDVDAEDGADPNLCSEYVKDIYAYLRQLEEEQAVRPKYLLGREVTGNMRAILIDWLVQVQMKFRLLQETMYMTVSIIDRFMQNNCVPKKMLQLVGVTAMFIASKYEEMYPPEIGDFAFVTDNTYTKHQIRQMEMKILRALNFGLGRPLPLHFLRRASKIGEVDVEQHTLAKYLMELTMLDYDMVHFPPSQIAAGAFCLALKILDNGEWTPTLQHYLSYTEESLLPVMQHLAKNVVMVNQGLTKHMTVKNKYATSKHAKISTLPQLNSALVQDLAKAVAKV

In the case of `C[C@@H](Nc1nc(Nc2ccc(S(=N)(=O)CCO)cc2)ncc1Br)C(C)(C)O` (mixture of isomers) [Example 1.14, (RS)-S-[4-({5-bromo-4-[(R)-(2-hydroxy-1,2-dimethylpropyl)amino]pyrimidin-2-yl}amino)phenyl]-S-(2-hydroxyethyl)-sulfoximide], the pIC50 is 7.05 in the test with DU145 (Homo sapiens, DU-145, 96 h) and 6.96 in the test with MaTu-ADR (Homo sapiens, 96 h).

Take `COC[C@@H](Nc1nc(Nc2ccc(S(C)(=N)=O)cc2)ncc1Br)[C@@H](C)O` (mixture of isomers) [Example 1.46, (RS)-S-{4-[(5-bromo-4-{[(1R,2R)-2-hydroxy-1-(methoxymethyl)-propyl]amino}pyrimidin-2-yl)amino]phenyl}-S-methyl sulfoximide]: the pIC50 in the test with MCF7 (Homo sapiens, MCF7, 96 h) is 6.70; in the test with H460 (Homo sapiens, NCI-H460, 96 h), 6.96; in the test on DU145 (Homo sapiens, DU-145, 96 h), 6.77; in the test on MaTu-ADR (Homo sapiens, 96 h) it was 6.70.

As for `CCS(=N)(=O)c1ccc(Nc2ncc(Br)c(N[C@H](COC)[C@@H](C)O)n2)cc1` (mixture of isomers) [Example 1.49, (RS)-S-{4-[(5-bromo-4-{[(1R,2R)-2-hydroxy-1-(methoxymethyl)-propyl]amino}pyrimidin-2-yl)amino]phenyl}-S-ethyl sulfoximide], the pIC50 is 6.52 in the test with MCF7, 6.40 in the test on H460, 6.52 in the test with DU145 and 6.22 in the test with MaTu-ADR.

With `CCS(=N)(=O)c1ccc(Nc2ncc(Br)c(N[C@H](C)C(C)(C)O)n2)cc1` (mixture of isomers) [Example 1.55, (RS)-S-[4-({5-bromo-4-[(R)-(2-hydroxy-1,2-dimethylpropyl)amino]pyrimidin-2-yl}amino)phenyl]-S-ethyl sulfoximide], the negative-log IC50 (pIC50) in the test with MCF7 is 6.52; in the test on H460 it was 6.52; in the test on DU145, 6.52; in the test with MaTu-ADR, 6.82.

Take `Cc1cc(Nc2ncc(Br)c(N[C@H](C)C(C)(C)O)n2)ccc1S(C)(=N)=O` (mixture of isomers) [Example 1.57, (RS)—S-[4-({5-bromo-4-[(R)-(2-hydroxy-1,2-dimethylpropyl)amino]pyrimidin-2-yl}amino)-2-methylphenyl]-S-methyl sulfoximide]: the negative logarithm of the IC50 (pIC50) in the test with H460 was 6.92; in the test on DU145 it was 6.96; in the test on MaTu-ADR it was 7.05.

On to `Cc1cc(Nc2ncc(Br)c(N[C@H](C)C(C)(C)O)n2)ccc1S(C)(=N)=O` (mixture of isomers) [Example 1.58, (RS)-S-[4-({5-bromo-4-[(R)-(2-hydroxy-1,2-dimethylpropyl)amino]pyrimidin-2-yl}amino)-2-methylphenyl]-S-methyl sulfoximide], for which the pIC50 with MCF7 is 7.22; with H460, 7.52; in the test with DU145, 7.52; in the test on MaTu-ADR, 7.40.

For the compound `C[C@@H](Nc1nc(Nc2ccc(S(=N)(=O)CCO)cc2)ncc1Br)C(C)(C)O` (single isomer, unassigned) [Example 1.15], the pIC50 in the test with MCF7 (Homo sapiens, MCF7, 96 h) is 6.74; with H460 (Homo sapiens, NCI-H460, 96 h), 6.70; in the test on DU145 (Homo sapiens, DU-145, 96 h), 6.52; with MaTu-ADR (Homo sapiens, 96 h), 6.52; at CDK1/CycB it was 7.60; against VEGF-R2, 7.23.

On to `C[C@@H](Nc1nc(Nc2ccc(S(C)(=N)=O)cc2)ncc1Br)C(C)(C)O` (single isomer, unassigned) [Example 1.42], for which the pIC50 in the test on MCF7 (Homo sapiens, MCF7, 96 h) was 6.82; with H460 (Homo sapiens, NCI-H460, 96 h), over 7.00; with DU145 (Homo sapiens, DU-145, 96 h), 6.77; with MaTu-ADR (Homo sapiens, 96 h), over 7.00.

`COC[C@@H](Nc1nc(Nc2ccc(S(C)(=N)=O)cc2)ncc1Br)[C@@H](C)O` (single isomer, unassigned) [Example 1.47]: the pIC50 in the test with MCF7 (Homo sapiens, MCF7, 96 h) is 6.22; with H460 (Homo sapiens, NCI-H460, 96 h), 6.22; in the test with DU145 (Homo sapiens, DU-145, 96 h) it was 6.22; with MaTu-ADR (Homo sapiens, 96 h), 6.10; at CDK2/CycE, 8.22.

`CCS(=N)(=O)c1ccc(Nc2ncc(Br)c(N[C@H](C)[C@@H](C)O)n2)cc1` (single isomer, unassigned) [Example 1.53]: the pIC50 in the test on MCF7 (Homo sapiens, MCF7, 96 h) was 6.52; on CDK2/CycE it was 8.40.

`Cc1cc(Nc2ncc(Br)c(N[C@H](C)C(C)(C)O)n2)ccc1S(C)(=N)=O` (single isomer, unassigned) [Example 1.59]: the negative logarithm of the IC50 (pIC50) in the test with MCF7 (Homo sapiens, MCF7, 96 h) is 6.96; with H460 (Homo sapiens, NCI-H460, 96 h), over 7.00; in the test on DU145 (Homo sapiens, DU-145, 96 h), over 7.00; with MaTu-ADR (Homo sapiens, 96 h), over 7.00.
